Test results published in patent US20180296456A1, “Decapeptide-12 Modulation of Sirtuin Gene Expression in Epidermal Keratinocyte Progenitors” (Escape Therapeutics, Inc., priority 2017, published 2018).
Peptide text beside a SMILES is read from it.

Experiments:
SIRT7 = SIRT7 transcription, semi-quantitative RT-PCR in human epidermal progenitors; assay type: cell-based; details: 72 h
Method: (§1) Human neonatal epidermal progenitors (Thermo Fisher Scientific, NY) were seeded in 6-well plates at a density of 2×10^5 cells/well. Each well received 2 ml of Epilife media containing 60 μM calcium chloride (Thermo Fisher Scientific, NY). Plates were incubated in a humidified chamber at 37 degrees Celsius and 5 percent CO2. Twenty-four hours later, cells were treated with various concentrations of oxyresveratrol or decapeptide-12 dissolved in PBS containing 5 percent DMSO. Control wells received vehicle only (5 percent DMSO and PBS). Final concentration of DMSO in each well was 0.05 percent.
(§2) After a 72 hour incubation period, cells were trypsinized and total RNA extracted, using RNeasy kit (Qiagen, Valencia, Calif.) according to the manufacturer's protocol.
(§3) RNA concentration was determined using nanodrop (Thermo fisher scientific, NY). Two μg of total RNA were used to synthesize cDNA using oligo dT primers and TaqMan reverse transcription reagents (Thermo fisher scientific, NY). The reaction was carried out in DNA Engine Peltier Thermal Cycler (Bio-Rad, Hercules, Calif.). The annealing temperature was 25 degrees Celsius for 10 minutes, followed by first strand synthesis at 48 degrees Celsius for 1 hour, and heat inactivation at 95 degrees Celsius for 5 minutes.
(§4) The SIRT1-7 primers (table 1) were designed using Primer3. The semi-quantitative PCR reactions were performed on a DNA Engine Peltier Thermo Cycler (Bio-Rad, Hercules, Calif.). PCR was carried under the following conditions: denaturation at 94 degrees Celsius for 2 minutes and primer extension at 54 degrees Celsius for 30 seconds in 34 cycles for SIRT 1-7 and the housekeeping gene 18S.
(§5) Samples were run and resolved on a 1.5 percent agarose gel containing 0.5 μg/ml of ethidium bromide and imaged using the FluorChem HD2 Imaging System (Protein simple, San Jose, Calif.). Densitometry analysis was carried out using the AlphaEase FC software (Protein simple, San Jose, Calif.). Intensity ratios were calculated as the intensity value for each gene divided by the intensity value of the internal control gene 18S.
(§6) The effect of the decapeptides P4, P4A, P4B, and P4C upon the transcription levels of sirtuins 1-7 was evaluated. Table 4 summarizes transcription levels for all four decapeptides with the corresponding genes, at tested concentrations of: 10, 30, 50, 100, and 300 (all in μM).

SIRT2 = SIRT2 transcription, semi-quantitative RT-PCR in human epidermal progenitors; assay type: cell-based; details: 72 h
Method: as §1, §2, §3, §4, §5, §6

[1] = Trypan blue cell viability, 7 days, fibroblasts; assay type: cell-based; details: human, relative to control, read-out: fibroblast viability after 7 days
Method: The effect of each of the decapeptides upon cell viability was also tested. In particular, cells were incubated with the decapeptide at various concentrations and then counted for viability relative to the control (untreated cells) using trypan blue. Cytotoxicity was measured according to the following formula:
[1−(# of cells in control−# of live cells in test sample)/# of cells in control]×100 percent.

SIRT5 = SIRT5 transcription, semi-quantitative RT-PCR in human epidermal progenitors; assay type: cell-based; details: 72 h
Method: as §1, §2, §3, §4, §5, §6

SIRT1 = SIRT1 transcription, semi-quantitative RT-PCR in human epidermal progenitors; assay type: cell-based; details: 72 h
Method: as §1, §2, §3, §4, §5, §6

SIRT6 = SIRT6 transcription, semi-quantitative RT-PCR in human epidermal progenitors; assay type: cell-based; details: 72 h
Method: as §1, §2, §3, §4, §5, §6

SIRT4 = SIRT4 transcription, semi-quantitative RT-PCR in human epidermal progenitors; assay type: cell-based; details: 72 h
Method: as §1, §2, §3, §4, §5, §6

in vitro = assay type: cell-based; details: human, human epidermal progenitors
Method: Proliferation rates were determined using a TACS® MTT Cell Proliferation Kit (R&D systems, Minneapolis, Minn.). Cells were seeded at 2.5×10^4/well in 96-well plates in a humidified atmosphere with 5 percent CO2 at 37 degrees Celsius. Twenty-four hours later, decapeptide-12 or oxyresveratrol were added to the corresponding wells at varying concentrations (0, 3, 10, 30, 100, 300, and 1000 μM), and cultures were then incubated for 72 hours. The remainder of the procedure was performed following the manufacturer's protocol.
(§7) Proliferation rates for three human cell lines (epidermal progenitors, melanoblasts, and fibroblasts) were determined using a TACS® MTT Cell Proliferation Kit. Cells were seeded at 2.5×10^4/well in 96-well plates in a humidified atmosphere with 5 percent CO2 at 37 degrees Celsius. Twenty-four hours later, the decapeptides were added to the corresponding wells at varying concentrations and incubated for 72 hours. The remainder of the procedure was performed following the manufacturer's protocol.

[2] = MTT cell proliferation assay, melanoblasts; assay type: cell-based, human; details: human, MTT, 72 h, read-out: melanoblast proliferation rate after 72 hours
Method: as §7

For CCCCCCCCCCCCCCCC(=O)N[C@@H](Cc1ccc(O)cc1)C(=O)N[C@@H](CCCNC(=N)N)C(=O)N[C@@H](CO)C(=O)N[C@@H](CCCNC(=N)N)C(=O)N[C@@H](CCCCN)C(=O)N[C@@H](Cc1ccc(O)cc1)C(=O)N[C@@H](CO)C(=O)N[C@@H](CO)C(=O)N[C@@H](Cc1c[nH]c2ccccc12)C(=O)N[C@@H](Cc1ccc(O)cc1)C(N)=O [P4A, Palmitoyl-YRSRKYSSWY-amide] (HELM PEPTIDE1{[CCCCCCCCCCCCCCCC(=O)[*:2]].Y.R.S.R.K.Y.S.S.W.Y.[am]}$$$$V2.0), the “SIRT7 transcription increase relative to control” value (SIRT7; 10 μM) was 29 ± 6%, the “SIRT7 transcription increase relative to control” value (SIRT7; 30 μM) was 33 ± 5% and the “SIRT7 transcription increase relative to control” value (SIRT7; 50 μM) was 52 ± 4%. For the same compound, the “SIRT7 transcription increase relative to control” value (SIRT7; 100 μM) was 87 ± 6%, the “SIRT7 transcription increase relative to control” value (SIRT7; 300 μM) was 113 ± 2% and the “SIRT2 transcription increase relative to control” value (SIRT2; 10 μM) was 14 ± 1%. For the same compound, the “SIRT2 transcription increase relative to control” value (SIRT2; 30 μM) was 15 ± 1%, the “SIRT2 transcription increase relative to control” value (SIRT2; 50 μM) was 6 ± 3% and the “SIRT2 transcription increase relative to control” value (SIRT2; 100 μM) was 48 ± 1%. For the same compound, the “SIRT2 transcription increase relative to control” value (SIRT2; 300 μM) was 30 ± 5%, the viability at 168 h, 3 µM ([1]; 3 μM) was 100% and the viability at 168 h, 10 µM ([1]; 10 μM) was 98.9 ± 1%. For the same compound, the viability at 168 h, 30 µM ([1]; 30 μM) was 98.4 ± 1%, the viability at 168 h, 50 µM ([1]; 50 μM) was 98 ± 1% and the viability at 168 h, 100 µM ([1]; 100 μM) was 97.4 ± 2%. For the same compound, the viability at 168 h, 300 µM ([1]; 300 μM) was 96.6 ± 2%, the viability at 168 h, 500 µM ([1]; 500 μM) was 95.5 ± 2% and the viability at 168 h, 1000 µM ([1]; 1000 μM) was 94.3 ± 2%. The “SIRT5 transcription increase relative to control” value (SIRT5; 10 μM) was 13 ± 2%, the “SIRT5 transcription increase relative to control” value (SIRT5; 30 μM) was 12 ± 2% and the “SIRT5 transcription increase relative to control” value (SIRT5; 50 μM) was 10 ± 3%. The “SIRT5 transcription increase relative to control” value (SIRT5; 100 μM) was 47 ± 7%, the “SIRT5 transcription increase relative to control” value (SIRT5; 300 μM) was 29 ± 4% and the “SIRT1 transcription increase relative to control” value (SIRT1; 10 μM) was 18 ± 2%. For the same compound, the “SIRT1 transcription increase relative to control” value (SIRT1; 30 μM) was 19 ± 1%, the “SIRT1 transcription increase relative to control” value (SIRT1; 50 μM) was 42 ± 5% and the “SIRT1 transcription increase relative to control” value (SIRT1; 100 μM) was 144 ± 5%. The “SIRT1 transcription increase relative to control” value (SIRT1; 300 μM) was 184 ± 2%, the “SIRT6 transcription increase relative to control” value (SIRT6; 10 μM) was 24 ± 5% and the “SIRT6 transcription increase relative to control” value (SIRT6; 30 μM) was 25 ± 5%. The “SIRT6 transcription increase relative to control” value (SIRT6; 50 μM) was 33 ± 7%, the “SIRT6 transcription increase relative to control” value (SIRT6; 100 μM) was 135 ± 10% and the “SIRT6 transcription increase relative to control” value (SIRT6; 300 μM) was 85 ± 5%. The “SIRT4 transcription increase relative to control” value (SIRT4; 10 μM) was 16 ± 1%, the “SIRT4 transcription increase relative to control” value (SIRT4; 30 μM) was 16 ± 1% and the “SIRT4 transcription increase relative to control” value (SIRT4; 50 μM) was 9 ± 4%. The “SIRT4 transcription increase relative to control” value (SIRT4; 100 μM) was 98 ± 12%, the “SIRT4 transcription increase relative to control” value (SIRT4; 300 μM) was 65 ± 1% and the viability at 72 h, 3 µM (in vitro) was 99 ± 1%. The viability at 72 h, 10 µM (in vitro) was 99 ± 1%, the viability at 72 h, 30 µM (in vitro) was 98 ± 1% and the viability at 72 h, 50 µM (in vitro) was 97 ± 1%. It also gave a viability at 72 h, 100 µM (in vitro) of 97 ± 2%, a viability at 72 h, 300 µM (in vitro) of 96 ± 2% and a viability at 72 h, 500 µM (in vitro) of 96 ± 2%. It also gave a viability at 72 h, 1000 µM (in vitro) of 94 ± 2%, a viability at 72 h, 3 µM ([2]; 3 μM) of 100% and a viability at 72 h, 10 µM ([2]; 10 μM) of 100%. It also gave a viability at 72 h, 30 µM ([2]; 30 μM) of 99 ± 1%, a viability at 72 h, 50 µM ([2]; 50 μM) of 98 ± 1% and a viability at 72 h, 100 µM ([2]; 100 μM) of 97 ± 2%. For the same compound, the viability at 72 h, 300 µM ([2]; 300 μM) was 97 ± 2%, the viability at 72 h, 500 µM ([2]; 500 μM) was 96 ± 2% and the viability at 72 h, 1000 µM ([2]; 1000 μM) was 95 ± 2%.
